# Source: PMC10127554 (Chemical biology & drug design, 2022)
# Tests used:
# [1] = test system: non-cancerous human lung fibroblast cells (HLF); assay: Cytotoxicity, CellTiter Glo assay, non-cancerous human lung fibroblast cells; assay type: cell-based; conditions: for IC50: Homo sapiens, Fibroblast, 72 h, read-out: IC50 Non-cancerous HLF
# A549 cells = assay: Antiproliferative activity, CellTiter Glo assay, A549; conditions: Homo sapiens, A549, 72 h, read-out: IC50 A549
# NCI-H522 cells [2] = assay: Antiproliferative activity, CellTiter Glo assay, NCI-H522; conditions: Homo sapiens, NCI-H522, 72 h, read-out: IC50 NCIH522
# NCI-H522 cells [3] = assay: Cell cycle analysis by flow cytometry; assay type: cell-based, human; conditions: 48hrs at 5 μM
# ACVRL1 = ACVRL1 (Homo sapiens, UniProt P37023); assay: Kinase activity profiling; assay type: biochemical; conditions: concentration not given
# ANKK1 = biological target: T1, ANKK1 (Homo sapiens, UniProt Q8NFD2); assay: Kinase activity profiling; assay type: biochemical; conditions: concentration not given
# T1 sequence (Q8NFD2 1-765): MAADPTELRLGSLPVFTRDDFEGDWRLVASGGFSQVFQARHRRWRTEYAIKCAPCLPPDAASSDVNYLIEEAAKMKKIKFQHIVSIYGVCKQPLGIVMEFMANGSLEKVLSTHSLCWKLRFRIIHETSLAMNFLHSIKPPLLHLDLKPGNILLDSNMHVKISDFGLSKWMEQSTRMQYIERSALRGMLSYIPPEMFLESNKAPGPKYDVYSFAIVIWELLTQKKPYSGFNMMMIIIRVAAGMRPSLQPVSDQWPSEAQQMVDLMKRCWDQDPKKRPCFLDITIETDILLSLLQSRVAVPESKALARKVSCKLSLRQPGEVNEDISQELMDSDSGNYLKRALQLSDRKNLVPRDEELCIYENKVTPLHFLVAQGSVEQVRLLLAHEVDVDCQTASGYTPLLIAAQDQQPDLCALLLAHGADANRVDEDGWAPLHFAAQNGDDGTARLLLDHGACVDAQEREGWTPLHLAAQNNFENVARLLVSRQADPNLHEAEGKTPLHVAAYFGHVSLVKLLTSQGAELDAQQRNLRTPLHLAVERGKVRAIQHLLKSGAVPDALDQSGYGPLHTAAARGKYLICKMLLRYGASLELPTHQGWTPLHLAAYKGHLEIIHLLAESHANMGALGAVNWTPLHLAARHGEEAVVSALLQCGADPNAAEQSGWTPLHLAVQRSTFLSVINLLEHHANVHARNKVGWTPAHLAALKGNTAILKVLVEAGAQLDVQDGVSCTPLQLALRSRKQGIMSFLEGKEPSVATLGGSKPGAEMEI
# NUAK2 = biological target: T2, NUAK2 (Homo sapiens, UniProt Q9H093); assay: Kinase activity profiling; assay type: biochemical; conditions: concentration not given
# T2 sequence (Q9H093 1-628): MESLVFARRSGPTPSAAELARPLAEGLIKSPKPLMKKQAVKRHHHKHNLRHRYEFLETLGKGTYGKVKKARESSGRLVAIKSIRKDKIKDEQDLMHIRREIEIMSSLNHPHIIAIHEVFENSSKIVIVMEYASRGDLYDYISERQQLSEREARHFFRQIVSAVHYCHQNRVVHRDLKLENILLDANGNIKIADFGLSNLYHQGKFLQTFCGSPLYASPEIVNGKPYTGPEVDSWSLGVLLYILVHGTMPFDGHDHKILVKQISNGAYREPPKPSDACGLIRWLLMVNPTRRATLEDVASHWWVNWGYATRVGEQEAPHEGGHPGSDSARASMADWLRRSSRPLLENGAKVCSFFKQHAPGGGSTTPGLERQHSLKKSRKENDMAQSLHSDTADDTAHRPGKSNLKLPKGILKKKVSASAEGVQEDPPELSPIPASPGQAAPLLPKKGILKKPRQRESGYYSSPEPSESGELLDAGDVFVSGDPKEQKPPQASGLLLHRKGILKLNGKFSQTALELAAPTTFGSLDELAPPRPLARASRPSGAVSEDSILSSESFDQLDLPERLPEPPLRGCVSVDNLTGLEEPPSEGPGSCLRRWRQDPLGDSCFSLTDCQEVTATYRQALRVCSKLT
# [4] = test system: panel of 485 kinases (including 110 oncogenic kinases); assay: Kinase activity profiling; assay type: biochemical
# ACVRL1, sequence (P37023 22-503): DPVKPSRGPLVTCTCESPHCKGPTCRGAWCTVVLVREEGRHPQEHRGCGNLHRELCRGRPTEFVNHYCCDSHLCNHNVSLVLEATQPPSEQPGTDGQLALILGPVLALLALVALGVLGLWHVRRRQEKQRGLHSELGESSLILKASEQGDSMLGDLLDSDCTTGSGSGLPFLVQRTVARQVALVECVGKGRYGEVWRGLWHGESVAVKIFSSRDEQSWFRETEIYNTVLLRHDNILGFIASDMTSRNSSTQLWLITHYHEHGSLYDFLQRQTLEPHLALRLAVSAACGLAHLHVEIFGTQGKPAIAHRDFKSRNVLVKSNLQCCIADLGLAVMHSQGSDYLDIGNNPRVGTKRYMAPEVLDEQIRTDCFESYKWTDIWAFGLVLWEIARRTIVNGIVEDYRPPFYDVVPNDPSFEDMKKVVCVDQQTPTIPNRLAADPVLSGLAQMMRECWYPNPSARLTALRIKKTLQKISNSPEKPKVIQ
SMILES,IC50 (A549 cells),IC50 (NCI-H522 cells [2]),inhibitory activity against ACVRL1 (ACVRL1),inhibitory activity against ANKK1 (ANKK1),inhibitory activity against NUAK2 (NUAK2),IC50 [1],times less cytotoxic to non-cancerous cells ([1]; non-cancerous cells versus A549 and NCIH522 cancer cell lines),effect on cell cycle progression (NCI-H522 cells [3]),inhibitory activity over panel of 485 kinases [4]
"CC1=NN(c2ccccc2)C(=O)C1(C)O (stereo not drawn) [P1, 4-hydroxy-4,5-dimethyl-2-phenyl-2,4-dihydro-3H-pyrazol-3-one]",> 100 µM,> 100 µM,,,,> 100 µM,,,
"O=C1CC(c2ccc(Br)cc2)=NN1c1ccc(C(F)(F)F)cc1 [P16, 5-(4-bromophenyl)-2-(4-(trifluoromethyl)phenyl)-2,4-dihydro-3H-pyrazol-3-one]",3.37 ± 0.1 µM,2.95 ± 0.18 µM,,,,1.45 ± 1.14 µM,,,
"O=C1CC(c2ccc(Br)cc2)=NN1c1ccc(Br)cc1 [P14, 2,5-bis(4-bromophenyl)-2,4-dihydro-3H-pyrazol-3-one]",2.73 ± 0.28 µM,2.41 ± 0.57 µM,,,,2.55 ± 1.1 µM,,more cell population in G2/M phase,
"CN(C)C/C=C/C(=O)Nc1cc2c(Nc3ccc(F)c(Cl)c3)ncnc2cc1O[C@H]1CCOC1 [PC-1, Afatinib, reference compound]",8.46 ± 2.03 µM,5.34 ± 0.94 µM,,,,12.2 ± 3.12 µM,,,
"O=C1CC(c2ccccc2)=NN1c1ccc(Cl)cc1 [P5, 2-(4-chlorophenyl)-5-phenyl-2,4-dihydro-3H-pyrazol-3-one]",1.98 ± 1.1 µM,4.5 ± 1.16 µM,,,,0.99 ± 1.25 µM,,,
"CCCC1=NN(c2ccccc2)C(=O)C1 [P2, 2-phenyl-5-propyl-2,4-dihydro-3H-pyrazol-3-one]",> 100 µM,> 100 µM,,,,,,,
"O=C1CC(c2ccccc2)=NN1c1ccccc1 [P3, 2,5-diphenyl-2,4-dihydro-3H-pyrazol-3-one]",10.3 ± 1.55 µM,17 ± 2.61 µM,,,,25.1 ± 1.39 µM,,,
"O=C1CC(c2ccc(F)cc2)=NN1c1ccc(Br)cc1 [P13, 2-(4-bromophenyl)-5-(4-fluorophenyl)-2,4-dihydro-3H-pyrazol-3-one]",2.67 ± 0.51 µM,3.7 ± 0.34 µM,,,,3.57 ± 1.15 µM,,more cell population in G2/M phase,
"O=C1CC(c2cc(F)c(F)c(F)c2F)=NN1c1ccccc1 [P12, 2-phenyl-5-(2,3,4,5-tetrafluorophenyl)-2,4-dihydro-3H-pyrazol-3-one]",8.6 ± 0.59 µM,9.9 ± 2.44 µM,,,,8.52 ± 1.09 µM,,,
"O=C1CC(c2ccc(Br)cc2)=NN1c1cc(Cl)cc(Cl)c1 [P17, 5-(4-bromophenyl)-2-(3,5-dichlorophenyl)-2,4-dihydro-3H-pyrazol-3-one]",5.56 ± 0.07 µM,5.07 ± 1.18 µM,,,,6.94 ± 1.12 µM,,,

# Further lines, with some results ahead:
IC50 (A549 cells),IC50 (NCI-H522 cells [2]),inhibitory activity against ACVRL1 (ACVRL1),inhibitory activity against ANKK1 (ANKK1),inhibitory activity against NUAK2 (NUAK2),SMILES,IC50 [1],times less cytotoxic to non-cancerous cells ([1]; non-cancerous cells versus A549 and NCIH522 cancer cell lines),effect on cell cycle progression (NCI-H522 cells [3]),inhibitory activity over panel of 485 kinases [4]
> 100 µM,> 100 µM,,,,"COc1cccc(C2=NN(c3ccccc3)C(=O)C2)c1 [P10, 5-(3-methoxyphenyl)-2-phenyl-2,4-dihydro-3H-pyrazol-3-one]",,,,
6.35 ± 0.85 µM,4.7 ± 1.38 µM,47%,50%,41%,"O=C1CC(c2ccc(Br)cc2)=NN1c1ccccc1 [P7, 5-(4-bromophenyl)-2-phenyl-2,4-dihydro-3H-pyrazol-3-one]",61.3 ± 1.08 µM,10 times,more cell population in G0/G1 phase,no potential inhibitory activity against any tested kinase
5.98 ± 0.84 µM,4.88 ± 1.73 µM,,,,"O=C1CC(c2ccc(C(F)(F)F)cc2)=NN1c1ccccc1 [P11, 2-phenyl-5-(4-(trifluoromethyl)phenyl)-2,4-dihydro-3H-pyrazol-3-one]",26.1 ± 1.12 µM,,more cell population in G0/G1 phase,
9.51 ± 3.12 µM,17.9 ± 3.36 µM,,,,"O=C1CC(c2ccc(F)cc2)=NN1c1ccccc1 [P8, 5-(4-fluorophenyl)-2-phenyl-2,4-dihydro-3H-pyrazol-3-one]",17.7 ± 1.1 µM,,,
2.61 ± 1.12 µM,4.93 ± 1.13 µM,,,,"O=C1CC(c2ccccc2)=NN1c1ccc(Br)cc1 [P4, 2-(4-bromophenyl)-5-phenyl-2,4-dihydro-3H-pyrazol-3-one]",0.72 ± 1.07 µM,,,
42.2 ± 2.76 µM,51.2 ± 3.06 µM,,,,"COc1ccc(C2=NN(c3ccccc3)C(=O)C2)cc1 [P9, 5-(4-methoxyphenyl)-2-phenyl-2,4-dihydro-3H-pyrazol-3-one]",,,,
39.6 ± 1.05 µM,40.5 ± 2.3 µM,,,,"O=C1CC(c2ccc([N+](=O)[O-])cc2)=NN1c1ccccc1 [P6, 5-(4-nitrophenyl)-2-phenyl-2,4-dihydro-3H-pyrazol-3-one]",26.8 ± 1.4 µM,,,
